# US20100217003A1, “1,2,3,4-TETRAHYDROISOQUINOLINE DERIVATIVES HAVING EFFECTS OF PREVENTING AND TREATING DEGENERATIVE AND INFLAMMATORY DISEASES” (priority 2006, published 2010)
# Experiments:
# BV-2 cell = assay: Inhibitory effect on NO production in LPS-stimulated BV-2 microglial cells (Griess); type: cell-based, mouse
# Procedure: BV-2 microglial cell line, CATH.a neuron line and SK-N-BE(2)C neuron line were cultured in Dulbecco's modified Eagle's medium (DMEM) supplemented with 10% bovine serum, […] penicillin, and 10 ? /ml streptomycin at 37° C. in an atmosphere of 5% CO2 and 95% air. The cells were planted on a polystyrene petri dish at the following densities: BV-2 (2.5×10^5 cells/24 well or 2.6×10^6 cells/60 mm dish; SK− N-BE(2)C (1.5×10^5 cells/24 well); and CATH.a (2.4×10^4 cells/96 well).
# Measurement of NO Production
# 200 ? of cell culture medium fraction and 100 ? of Griess reagent (2.5% […], 1% sulfanilamide and 0.1% naphthylethylenediamine dihydrochloride) were mixed in a 96-well microtiter plate, and the absorbance of a sample was read at 540 nm using a microtiter plate reader (multi-well spectrophotometer). The concentration of nitrite was calculated using a standard curve for sodium nitrite.
# To determine whether EHMTIQ (11a) inhibits NO production in an activated […] cell, a mouse microglial cell line, BV-2, was used in this assay. Lipopolysaccharide (LPS)-stimulated BV-2 cell samples were treated with various concentrations of EHMTIQ (11a) and then the NO level of a sample was measured. The results are illustrated in FIG. 1.
# IL-1β mRNA = assay: Expression of IL-1β genes in LPS-stimulated BV-2 cells (RT-PCR); type: cell-based, mouse
# Procedure: (§1) RT-PCR for GTPCH, iNOS, TNF-α, IL-1β and COX-2
# (§2) 5 ? each of total RNA samples isolated from BV-2 cells were subjected to reverse-transcription (RT), and then polymerase chain reaction (PCR) for 30 cycles under the conditions of 94° C. for 30 seconds, 60° C. for 40 seconds and 72° C. for one minute. Primers used in the PCR were as follows: iNOS (forward, ATGTCCGAAG-CAAACATCAC; reverse, TAATGTC CAGGAAGTAGGTG), TNF-α (forward, CA-[…] reverse, CAGAGCAATGACTC-CAAAGTAGACCT), IL-1β (forward, […]; reverse, CAGGACAGGTAT AGATTCTTTCCTTT), COX-2 (forward, […]; reverse, […]), GTPCH (forward, GGATACCAGGAGACCAT CTCA; reverse, TAGCATGGTGC-TAGTGACAGT). RT-PCR for B2M was simultaneously performed as internal control. The PCR products were subjected to electrophoresis in a 1.5% agarose gel, thereby confirming the presence of a desired size of single band.
# The assay was performed to investigate whether EHMTIQ (11a) affects IL-β production in an activated microglial cell. LPS-stimulated BV-2 cell smaples were treated with various concentrations of EHMTIQ (11a) and the expression of IL-1β genes was estimated by RT-PCR. The results are illustrated in FIG. 4.
# iNOS mRNA = assay: Expression of iNOS genes in LPS-stimulated BV-2 cells (RT-PCR); type: cell-based, mouse
# Procedure: as §1, §2
# The assay was performed to determine whether EHMTIQ (11a) affects the expression of iNOS genes. LPS-stimulated BV-2 cell samples were treated with various concentrations of EHMTIQ (11a), and the expression of iNOS gene was estimated by RT-PCR. The results are illustrated in FIG. 6.
# GTPCH mRNA = assay: Expression of GTPCH genes in LPS-stimulated BV-2 cells (RT-PCR); type: cell-based, mouse
# Procedure: as §1, §2
# GTP cyclohydrolase I (GTPCH) is a rate-limiting enzyme in the synthesis of tetrahydrobiopterin (BH4) which is essential for iNOS catalysis. Accordingly, the down regulation of GTPCH may lower NO production. The assay was performed to determine whether EHMTIQ (11a) affects the expression of GTPCH genes induced by LPS. The LPS-stimulated BV-2 cell samples were treated with various concentrations of EHMTIQ (11a) and the expression of GTPCH genes was estimated by RT-PCR. The results are illustrated in FIG. 7.
# [1] = molecular target: T1, GTP cyclohydrolase I (GTPCH) (Homo sapiens, UniProt P30793); assay: Direct effect on catalysis of GTPCH; type: biochemical; conditions: not illustrated
# T1 sequence (P30793 1-250): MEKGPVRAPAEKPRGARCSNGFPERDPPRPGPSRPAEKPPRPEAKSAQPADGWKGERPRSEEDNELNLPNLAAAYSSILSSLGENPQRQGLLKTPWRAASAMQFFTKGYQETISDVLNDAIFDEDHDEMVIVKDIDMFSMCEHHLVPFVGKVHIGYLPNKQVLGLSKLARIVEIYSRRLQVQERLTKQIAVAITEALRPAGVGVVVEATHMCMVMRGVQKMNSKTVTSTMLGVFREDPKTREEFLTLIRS
# SK-N-BE(2)C cells = assay: Protective effect against neuron death due to substances released from activated microglial cells (LDH); type: cell-based; conditions: culture medium from 50 EHMTIQ + LPS-treated BV-2 cells
# Procedure: Measurement of Lactate Dehydrogenase (LDH) Activity
# 0.26 mM NADH, 2.87 mM sodium pyruvate and 100 mM potassium phosphate buffer (pH 7.4) were added to cell culture medium (50 ? ) to make a total volume of 200 ? , and then cultured at RT. The resultant NAD^+ was measured at 340 nm for 5 minutes at 2-second intervals using a microplate spectrophotometer (SPECTRA MAX 340 pc; Molecular Devices, Menlo Park, Calif., USA).
# BV-2 microglial cells were planted in a 24-well Petri dish at a density of 2.5×10^5 cells/ml. After an overnight culture, the cells were treated with […] lipopolysaccharide and EHMTIQ (11a) and then cultured for 12 more hours. At the same time, SK-N-BE(2)C cells were planted in a 24-well Petri dish at 0.5×10^5 cells/ml and cultured for 24 hours. The culture medium for SK-N-BE(2) C cells was removed and the culture medium for BV-2 was added thereto. After 24 hours, the death rate of SK-N-BE(2)C cells was measured using LDH.
# The assay was performed to determine whether EHMTIQ (11a) protects a dopaminergic cell from injuries due to inflammatory substances released from an activated microglial cell. SK-N-BE(2)C cells were transferred to a culture medium containing substances released from LPS-stimulated BV-2 cells, and the cell death rate was measured by activity of LDH contained in the culture medium and compared with that in the EHMTIQ (11a)-treated BV-2 culture medium.
# [2] = tested on: mouse model of Parkinson's disease induced by MPTP; assay: Mouse model of Parkinson's disease induced by MPTP (immunostaining of substantia nigra and striatum); type: in vivo
compound,measurement,setting,value
"CCC(=O)N1CCc2cc(OC)c(O)cc2C1 [EHMTIQ (11a), 2-ethylcarbonyl-7-hydroxy-6-methoxy-1,2,3,4-tetrahydroisoquinoline]","NO production induced by LPS, compared with the control not treated with EHMTIQ",BV-2 cell; 5 (concentration unit printed as image),63±4%
same,NO production,BV-2 cell; 100 (concentration unit printed as image),inhibit NO production to the control level
same,IC50,"BV-2 cell; Mus musculus, unit printed as image",2810 nM
same,mRNA level of IL-1β,IL-1β mRNA; 2.5 (unit as image),74±0.7%
same,mRNA level of IL-1β,IL-1β mRNA; 100 (unit as image),significant decrease in the LPS effect
same,expression of iNOS genes compared to the control only treated with LPS,iNOS mRNA; 5 (unit as image),82±1%
same,expression of iNOS genes compared to the control only treated with LPS,iNOS mRNA; 100 (unit as image),24±1%
same,gene expression of GTPCH,GTPCH mRNA; 2.5 (unit as image),17±1%
same,gene expression of GTPCH,GTPCH mRNA; 100 (unit as image),75±1%
same,direct effect on catalysis of GTPCH,[1],did not directly relate to the catalysis of GTPCH
same,cell injury rate of SK-N-BE(2)C cells,SK-N-BE(2)C cells,reduced
same,activation of microglial cells in the substantia nigra (Iba-1 immunostaining),[2]; MPTP mouse (FIG. 13),inhibitory effect
same,dopaminergic neurons in the substantia nigra (TH immunostaining),[2]; MPTP mouse (FIG. 14),protective effect
same,degeneration of dopaminergic neurons in the substantia nigra (fluoroJade C and TH double labelling),"[2]; MPTP mouse (FIG. 14, right panels)",inhibitory effect
same,dopamine nerve terminals in the striatum (TH immunostaining),[2]; MPTP mouse (FIG. 15),protective effect
